Source: patent US12005096B2, “Apoaequorin and vitamin d-containing compositions and methods of using same” (QUINCY BIOSCIENCE, LLC, priority 2016, dated 2024)
Like-named read-outs stand apart in the source and are kept apart here.

How the values were obtained:
[1] = not given; remark: listed apart in the source
[2] = test system: rat hippocampal brain slices; experiment: Neuroprotection in rat hippocampal brain slices after oxygen glucose deprivation (OGD); assay type: in vivo; settings: 5-min OGD; AQ by direct hippocampal injection; vitamin D in diet 0.0125 mg/kg for ~10 days; preliminary results
[3] = not given; remark: listed apart in the source
[4] = apoaequorin 10 mg daily, N=56, eight days to 30 days

Row | Substance | overall quality of sleep, energy, mood, pain, general health (change from baseline of scores) (32 patients, 90 day period, open-label) | participants discontinued the study due to an adverse event (in vivo) | memory performance (memory screening tool) ([1]; 56 participants, day 8 and day 30) | memory improvement ([1]; apoaequorin 10 mg daily, 56 participants, after 30 days) | participants with improvement in general memory [1, 4] [%] | participants with improvement in remembering driving directions [1, 4] [%] | participants with improvement in retaining information [1, 4] [%] | participants with improvement in word recall [1, 4] [%] | participants discontinued the study due to an adverse event ([1]; in vivo) | cell death (dead and dying, blue stained cells) after OGD [2] | participants with an increase in cognitive ability ([3]; 32 patients, 90 days) | cognition (standardized cognitive battery) ([3]; 32 patients, day 8, 30, 60-90) | participants discontinued the study due to an adverse event ([3]; in vivo)
1 | apoaequorin | increase | No participants discontinued the study due to an adverse event | improved memory performance as early as eight days but with statistically greater improvement at day 30 | statistically significant improvement in memory | 57 | 84 | 51 | 66 | No participants discontinued the study due to an adverse event | few er dead and dying cells | Greater than 51% | improved cognition as early as eight days but with statistically greater improvement at day 30, as well as 60-90 | No participants discontinued the study due to an adverse event
2 | vitamin D [reference compound] |  |  |  |  |  |  |  |  |  | fewer dead or dying cells |  |  | 
